Measurements reported in patent publication US12098151B2 (priority 2018, dated 2024).
pEC50: −log10 of the molar value. “And” between values parts separate entries of the source, which are not always exact repeats. Equal entries are not always repeated. Where two headings read alike, the source gives them in different places.

Tests used:
[1] = tested on: Junin virus; test: microbe, parasite or virus in culture; type: cell-based
[2] = tested on: LCMV; test: microbe, parasite or virus in culture; type: cell-based, lymphocytic choriomeningitis virus (LCMV)
[3] = tested on: Lassa virus (Josiah strain); type: cell-based
[4] = tested on: Lassa virus (LF2384 strain); test: microbe, parasite or virus in culture; type: cell-based; conditions: Mammarenavirus lassaense, Vero, 72 h, read-out: Log10 of IC90 (nM) (converted)
[5] = Mammarenavirus juninense, HEK-293T, 96 h
[6] = Mammarenavirus choriomeningitidis, KB, 96 h

SMILES | pEC50 [1, 5] | pEC50 [2, 6] | other results
CC(C)N1CN(C2c3ccccc3CCc3ccccc32)n2cc(C(=O)O)c(=O)c(O)c2C1=O [Compound I-021] | 8.09 | 8.70 | Lassa virus proliferation inhibitory effect compared with control compound Ribavirin [3]: significantly stronger Lassa virus proliferation inhibitory effect than the control compound Ribavirin; Virus infectivity titer (24 h.p.i., PFU/ml) [3]: 5 × 10^4 PFU/ml and <10 PFU/ml; Virus infectivity titer (48 h.p.i., PFU/ml) [3]: 5 × 10^6 PFU/ml and 5 × 10^3 PFU/ml; IC90 [4]: 3.1 nM
CCN1CN(C2c3ccccc3CCc3ccccc32)n2cc(C(=O)O)c(=O)c(O)c2C1=O [Compound I-078] | 8.48 | 8.21 | IC90 [4]: 3.14 nM
O=C(O)c1cn2c(c(O)c1=O)C(=O)N(Cc1ccc(F)cc1F)CN2C1c2ccccc2CCc2ccccc21 [Compound I-081] | 8.21 | 7.62 | –
O=C(O)c1cn2c(c(O)c1=O)C(=O)N(C1CC1)CN2C1c2ccccc2CCc2ccccc21 [II-001] | 8.35 | 8.09 | –
O=C(O)c1cn2c(c(O)c1=O)C(=O)N(C[C@@H]1CCCO1)CN2C1c2ccccc2CCc2ccccc21 [II-002] | 7.92 | 8.15 | –
O=C(O)c1cn2c(c(O)c1=O)C(=O)N(CC1CC1)CN2C1c2ccccc2CCc2ccccc21 [II-003] | 8.17 | 8.10 | IC90 [4]: 2.53 nM
CN1CN(C2c3ccccc3CCc3ccccc32)n2cc(C(=O)O)c(=O)c(O)c2C1=O [II-004] | 8.04 | 7.62 | –
CC(C)N1CN(C2c3ccccc3Oc3ccccc32)n2cc(C(=O)O)c(=O)c(O)c2C1=O [III-001] | 6.96 | 7.72 | –
CC(C)N1CN(C2c3ccccc3C=Cc3ccccc32)n2cc(C(=O)O)c(=O)c(O)c2C1=O [III-002] | 8.36 | 7.96 | –
CC(C)N1CN(C2c3ccccc3CCc3ccccc32)n2cc(C(N)=O)c(=O)c(O)c2C1=O [III-003] | 6.52 | 6.17 | –
CON(C)C(=O)c1cn2c(c(O)c1=O)C(=O)N(C(C)C)CN2C1c2ccccc2CCc2ccccc21 [III-004] | 7.68 | 7.57 | –
CC(C)N1CN(Cc2ccccc2CCc2ccccc2)n2cc(C(=O)O)c(=O)c(O)c2C1=O [III-005] | 6.61 | 7.05 | –
CCCCCN1CN(C2c3ccccc3CCc3ccccc32)n2cc(C(=O)O)c(=O)c(O)c2C1=O [III-006] | 8.03 | 7.60 | –
O=C(O)c1cn2c(c(O)c1=O)C(=O)N(CC1CCOCC1)CN2C1c2ccccc2CCc2ccccc21 [III-007] | 7.80 | 7.85 | –
COc1ccc(CN2CN(C3c4ccccc4CCc4ccccc43)n3cc(C(=O)O)c(=O)c(O)c3C2=O)cc1 [III-008] | 7.85 | 7.72 | –
O=C(O)c1cn2c(c(O)c1=O)C(=O)N(Cc1ccc(F)cc1Cl)CN2C1c2ccccc2CCc2ccccc21 [III-009] | 7.72 | 7.43 | –
O=C(O)c1cn2c(c(O)c1=O)C(=O)N(CCc1ccc(F)cc1F)CN2C1c2ccccc2CCc2ccccc21 [III-011] | 7.01 | 7.26 | –
O=C(O)c1cn2c(c(O)c1=O)C(=O)N(CC1CCCCC1)CN2C1c2ccccc2CCc2ccccc21 [III-012] | 7.68 | 7.42 | –
O=C(O)c1cn2c(c(O)c1=O)C(=O)N(CC1CC1)CN2C1c2ccccc2CSc2ccccc21 (stereo not drawn) [III-013] | – | – | pEC50 [1]: 8.43; pEC50 [2]: 8.48
O=C(O)c1cn2c(c(O)c1=O)C(=O)N(CC1CC1)CN2C1c2ccccc2CSc2ccccc21 (stereo not drawn) [III-014] | – | – | pEC50 [1]: 6.56; pEC50 [2]: 6.89
O=C(O)c1cn2c(c(O)c1=O)C(=O)N(CC1CCCC1)CN2C1c2ccccc2CCc2ccccc21 [III-015] | 7.60 | 7.77 | –

SMILES | pEC50 [1, 5] | pEC50 [2, 6] | other results
O=C(O)c1cn2c(c(O)c1=O)C(=O)N(CC1CCC1)CN2C1c2ccccc2CCc2ccccc21 [III-016] | 7.92 | 8.14 | –
O=C(O)c1cn2c(c(O)c1=O)C(=O)N(C(C1CC1)C1CC1)CN2C1c2ccccc2CCc2ccccc21 [III-017] | 8.31 | 8.36 | –
O=C(O)c1cn2c(c(O)c1=O)C(=O)N(CC1CC1)CN2C(c1ccc(-c2ccccc2)cc1)c1ccc(-c2ccccc2)cc1 [III-018] | 6.76 | 6.40 | –
CCN1CN(C2c3ccccc3CCc3ccccc32)n2nc(C(=O)O)c(=O)c(O)c2C1=O [III-019] | 7.14 | 7.41 | –
CC(C)N1CN(C2c3ccccc3CSc3ccccc32)n2cc(C(=O)O)c(=O)c(O)c2C1=O (stereo not drawn) [III-020] | – | – | pEC50 [1]: < 6.70; pEC50 [2]: 6.92
CC(C)N1CN(C2c3ccccc3CSc3ccccc32)n2cc(C(=O)O)c(=O)c(O)c2C1=O (stereo not drawn) [III-021] | – | – | pEC50 [1]: 8.21; pEC50 [2]: 8.31
CC(C)N1CN(C2c3ccc(F)cc3CCc3cc(F)ccc32)n2cc(C(=O)O)c(=O)c(O)c2C1=O [III-023] | 7.77 | 7.85 | –
Cc1ccc2c(c1)C(N1CN(C(C)C)C(=O)c3c(O)c(=O)c(C(=O)O)cn31)c1cc(C)ccc1CC2 [III-024] | < 6.70 | 7.08 | –
CC(C)N1CN(C2c3ccc(Cl)cc3CCc3cc(Cl)ccc32)n2cc(C(=O)O)c(=O)c(O)c2C1=O [III-025] | 7.51 | 7.77 | –
O=C(O)c1cn2c(c(O)c1=O)C(=O)N(CC1CC1)CN2C(c1ccccc1)c1ccccc1 [III-027] | 7.89 | 7.72 | –
O=C(O)c1cn2c(c(O)c1=O)C(=O)N(C(C1CC1)C1CC1)CN2C1c2ccccc2CSc2ccccc21 (stereo not drawn) [III-028] | – | – | pEC50 [1]: 8.62; pEC50 [2]: 8.68
O=C(O)c1cn2c(c(O)c1=O)C(=O)N(C(C1CC1)C1CC1)CN2C1c2ccccc2CSc2ccccc21 (stereo not drawn) [III-029] | – | – | pEC50 [1]: 6.74; pEC50 [2]: 7.20
O=C(O)c1cn2c(c(O)c1=O)C(=O)N(CC1CC1)CN2C(c1cccc(-c2ccccc2)c1)c1cccc(-c2ccccc2)c1 [III-030] | 7.74 | 7.11 | –
Cc1cccc2c1CCc1c(C)cccc1C2N1CN(CC2CC2)C(=O)c2c(O)c(=O)c(C(=O)O)cn21 [III-031] | 8.35 | 8.39 | –
Cc1cccc2c1CCc1c(C)cccc1C2N1CN(C(C2CC2)C2CC2)C(=O)c2c(O)c(=O)c(C(=O)O)cn21 [III-032] | 7.77 | 7.55 | –
Cc1cccc2c1CCc1c(C)cccc1C2N1CN(CC2CCC2)C(=O)c2c(O)c(=O)c(C(=O)O)cn21 [III-033] | 8.19 | 8.06 | –
O=C(O)c1cn2c(c(O)c1=O)C(=O)N(CC1CC1)CN2C1c2cccc(F)c2CCc2c(F)cccc21 [III-034] | 8.35 | 8.46 | –
O=C(O)c1cn2c(c(O)c1=O)C(=O)N(CC1CCC1)CN2C1c2cccc(F)c2CCc2c(F)cccc21 [III-035] | 8.02 | 8.14 | –
O=C(O)c1cn2c(c(O)c1=O)C(=O)N(C(C1CC1)C1CC1)CN2C1c2cccc(F)c2CCc2c(F)cccc21 [III-036] | 8.29 | 8.20 | –
NC(=O)c1ncn([C@@H]2O[C@H](CO)[C@@H](O)[C@H]2O)n1 [Ribavirin, reference compound] | – | – | Virus infectivity titer (48 h.p.i., PFU/ml) [3]: 9 × 10^4 PFU/ml and 6 × 10^6 PFU/ml and 5 × 10^6 PFU/ml
